Measured values taken from patent US20250171459A1, “2-METHYL-4',5'-DIHYDROSPIRO[PIPERIDINE-4,7'-THIENO[2,3-C]PYRAN] DERIVATIVES AS INHIBITORS OF APOL1 AND METHODS OF USING SAME” (Vertex Pharmaceuticals Incorporated, priority 2022, published 2025).

These molecules were tested against T1, APOL1 (Homo sapiens, UniProt O14791) (assay: MultiTox-Fluor Multiplex Cytotoxicity Assay in tet-inducible APOL1 T-REx-HEK293 cells (cell rescue, ratio of dead to live cells)). Details: tet-inducible transgenic APOL1 T-REx-HEK293 cell lines, 50 ng/mL tet, 24 hours; read-out: IP50 (i.e., IC50 for cell proliferation).
T1 sequence (O14791 1-398 S342G/I384M): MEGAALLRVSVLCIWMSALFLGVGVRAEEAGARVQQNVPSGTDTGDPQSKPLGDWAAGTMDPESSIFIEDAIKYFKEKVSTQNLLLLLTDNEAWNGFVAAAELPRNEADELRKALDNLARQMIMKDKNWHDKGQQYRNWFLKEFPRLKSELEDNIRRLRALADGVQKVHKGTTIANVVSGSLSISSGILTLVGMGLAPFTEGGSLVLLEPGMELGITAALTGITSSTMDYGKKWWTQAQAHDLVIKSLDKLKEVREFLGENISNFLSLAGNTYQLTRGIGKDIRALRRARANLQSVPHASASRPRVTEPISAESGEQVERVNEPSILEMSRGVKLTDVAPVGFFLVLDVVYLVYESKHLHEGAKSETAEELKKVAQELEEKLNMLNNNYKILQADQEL
Assay type: cell-based
Procedure, shortened: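 T-REx-HEK293 cells with tet-inducible APOL1 were treated with compound (10 μM top, 10-point 3-fold dilution, duplicate) plus 50 ng/mL tetracycline for 24 h at 37° C, in DMEM with 2% tet-free FBS. MultiTox-Fluor protease signals gave a dead/live ratio, normalized to no tet (100% viability) and tet alone (0%).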
With C[C@H]1C[C@@]2(CCN1C1COCC1O)OCCc1cc(CC(F)F)sc12 (some centres unmarked) [Compound 597] the IC50 was < 100 nM. For CCc1cc2c(s1)CCO[C@@]21CCN(Cc2cn(-c3cncc(O)c3)nn2)[C@@H](C)C1 [Compound 16, 5-[4-[[(2′S,4R)-2-ethyl-2′-methyl-spiro[6,7-dihydrothieno[3,2-c]pyran-4,4′-piperidine]-1′-yl]methyl]triazol-1-yl]pyridin-3-ol], the IC50 was 100 to 500 nM. In the case of CCc1cc2c(s1)CCO[C@@]21CCN(Cc2cn([C@H]3C[C@@](C)(O)C3)nn2)[C@@H](C)C1 [Compound 132], the IC50 is reported as 100 to 500 nM. Molecule CCc1cc2c(s1)CCOC21CCN(Cc2cn(C(C)C(=O)NCCC(F)(F)F)nn2)CC1 (centres unmarked) [Compound 1121] has an IC50 of 500 to 1000 nM. For Cc1cc2c(s1)[C@]1(CCN(Cc3cnn(CCO)c3)[C@@H](C)C1)OCC2 [Compound 1027, 2-[4-[[(2′S, 7R)-2,2′-dimethylspiro[4,5-dihydrothieno[2,3-c]pyran-7,4′-piperidine]-1′-yl]methyl]pyrazol-1-yl]ethanol], the IC50 was < 100 nM. In the case of Cc1cc(C(=O)N[C@H]2C[C@@H](CN3CC[C@]4(C[C@@H]3C)OCCc3cc(CC(F)F)sc34)C2)on1 [Compound 555], the IC50 is reported as < 100 nM. CCc1cc2c(s1)CCO[C@@]21CCN(Cc2cn(C(C)(C)CS(C)(=O)=O)nn2)[C@@H](C)C1 [Compound 168] showed an IC50 of 500 to 1000 nM. With C[C@H]1C[C@@]2(CCN1Cc1cnn(CCO)c1)OC[C@@H](O)c1cc(C(F)(F)F)sc12 [Compound 885] the IC50 was < 100 nM. For CCc1cc2c(s1)CCO[C@@]21CCN(C[C@H]2C[C@@H](NS(=O)(=O)c3cccc(C#N)c3)C2)[C@@H](C)C1 [Compound 400], the IC50 was < 100 nM. CCc1cc2c(s1)CCO[C@@]21CCN(CC2CN(C(=O)[C@H]3CCC(=O)N3)C2)[C@@H](C)C1 [Compound 487] gave an IC50 of 100 to 500 nM. For C[C@H]1C[C@@]2(CCN1Cc1ccccn1)OCCc1c2sc(Cl)c1CO [Compound 758], the IC50 was 500 to 1000 nM. CCc1cc2c(s1)CCO[C@@]21CCN(Cc2cn(CC(C)(CO)OC)nn2)[C@@H](C)C1 (some centres unmarked) [Compound 110] was tested, and the IC50 was 100 to 500 nM. In the case of CCc1cc2c(s1)CCO[C@@]21CCN(Cc2cnc(Cl)nc2)[C@@H](C)C1 [Compound 198, (2′S,4R)-1′-[(2-chloropyrimidin-5-yl)methyl]-2-ethyl-2′-methyl-spiro[6,7-dihydrothieno[3,2-c]pyran-4,4′-piperidine]], the IC50 is reported as 100 to 500 nM. CCc1cc2c(s1)CCO[C@@]21CCN(C[C@H]2C[C@@H](NC(=O)c3cn(C4CCOCC4)nn3)C2)[C@@H](C)C1 [Compound 321] gave an IC50 of 100 to 500 nM. With C[C@H]1C[C@@]2(CCN1Cc1cnn(CC(O)CC(C)(O)C3CC3)c1)OCCc1c2sc(C(F)(F)F)c1CO (some centres unmarked) [Compound 938] the IC50 was < 100 nM. With C[C@H]1C[C@@]2(CCN1CCC(C)(C)O)OCCc1cc(CC(F)F)sc12 [Compound 620] the IC50 was 100 to 500 nM. CC(=CC(O)Cn1cc(CN2CC[C@]3(C[C@@H]2C)OC[C@@H](O)c2cc(C(F)(F)F)sc23)cn1)C1CC1 (some centres unmarked) [Compound 980] was tested, and the IC50 was 100 to 500 nM. For C[C@@H]1C[C@]2(CCN1Cc1cn(CC(O)C(C)(C)O)nn1)OCCc1cc(Cl)sc12 (stereo in doubt) [Compound 626, 1-(4-(((2R,4S)-2′-chloro-2-methyl-4′,5′-dihydrospiro[piperidine-4,7′-thieno[2,3-c]pyran]-1-yl)methyl)-1H-1,2,3-triazol-1-yl)-3-methylbutane-2,3-diol], the IC50 was < 100 nM. Molecule C#CC(C)N1CC[C@]2(C[C@@H]1C)OCCc1cc(Cl)sc12 (stereo partly drawn) [Compound 694, (2′S, 7R)-2-chloro-2′-methyl-1′-(1-methylprop-2-ynyl)spiro[4,5-dihydrothieno[2,3-c]pyran-7,4′-piperidine]] has an IC50 of 500 to 1000 nM. For C[C@H]1C[C@@]2(CCN1Cc1cnn(CCS(C)(=O)=O)c1)OCC(O)c1c2sc(Cl)c1Cl (stereo partly drawn) [Compound 860, (2′S, 7R)-2,3-dichloro-2′-methyl-1′-[[1-(2-methylsulfonylethyl)pyrazol-4-yl]methyl]spiro[4,5-dihydrothieno[2,3-c]pyran-7,4′-piperidine]-4-ol], the IC50 was < 100 nM. In the case of C[C@H]1C[C@@]2(CCN1Cc1cnn(CC(C)(CO)CO)c1)OCCc1cc(Cl)sc12 [Compound 634], the IC50 is reported as < 100 nM. For CCc1cc2c(s1)CCO[C@@]21CCN(Cc2cn(C3CC(O)C3)nn2)[C@@H](C)C1 (some centres unmarked) [Compound 152], the IC50 was 100 to 500 nM. For CCc1cc2c(s1)CCO[C@@]21CCN(Cc2cnc(NC3CNC(=O)C3)nc2)[C@@H](C)C1 (some centres unmarked) [Compound 218], the IC50 was < 100 nM. In the case of CCc1cc2c(s1)CCOC21CCN(Cc2cnc(Nc3cccnc3)nc2)CC1 [Compound 1074], the IC50 is reported as < 100 nM. With CCc1cc2c(s1)CCO[C@@]21CCN(Cc2cn(CCC#N)nn2)[C@@H](C)C1 [Compound 37] the IC50 was < 100 nM. For CCc1cc2c(s1)CCO[C@@]21CCN(CC2CN(S(=O)(=O)c3ccccc3)C2)[C@@H](C)C1 [Compound 493], the IC50 was 500 to 1000 nM.
